# Assay results taken from paper PMC6917776, “Discovery of a chemical probe for PRDM9” (Nature Communications, 2019).
# Where “and” joins values, the source holds several entries; their conditions need not be identical. Equal entries are not always repeated.
# What was measured:
# [1] = target: T1, Muscarinic M2 (Homo sapiens, UniProt P08172); experiment: GPCR functional activity, GloSensor assay (agonist and antagonist mode); type: cell-based; settings: for M2 Tango Agonist, raw signal / M2 Tango Antagonist, raw signal: replicates 1-4
# T1 construct: NIMH Psychoactive Drug Screening Program, University of North Carolina at Chapel Hill
# T1 sequence (P08172 1-466): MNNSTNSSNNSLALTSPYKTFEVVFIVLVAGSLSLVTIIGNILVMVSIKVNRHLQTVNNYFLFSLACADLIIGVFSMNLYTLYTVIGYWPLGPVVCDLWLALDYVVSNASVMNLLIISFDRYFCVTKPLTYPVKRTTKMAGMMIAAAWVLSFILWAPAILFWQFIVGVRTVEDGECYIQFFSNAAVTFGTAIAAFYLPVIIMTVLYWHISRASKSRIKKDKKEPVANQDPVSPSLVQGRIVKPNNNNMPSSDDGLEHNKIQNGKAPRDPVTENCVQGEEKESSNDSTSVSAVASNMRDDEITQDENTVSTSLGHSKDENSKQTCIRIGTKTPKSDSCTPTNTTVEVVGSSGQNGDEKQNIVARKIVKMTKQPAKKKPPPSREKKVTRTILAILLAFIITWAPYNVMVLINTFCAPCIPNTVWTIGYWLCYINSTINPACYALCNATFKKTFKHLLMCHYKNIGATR
# [2] = target: T2, Opiate µ receptor (MOR) (Homo sapiens, UniProt P35372); experiment: as above; type: cell-based; settings: for MOR Gi Agonist, raw signal: replicates 1-3; for MOR Tango Antagonist, raw signal: replicates 1-4
# T2 construct: NIMH Psychoactive Drug Screening Program, University of North Carolina at Chapel Hill
# Text: Supplementary Figure 5. Assessment of GPCR functional activity. […]
# profiles were generously provided by the National Institute of Mental Health’s (NIMH)
# Psychoactive Drug Screening Program, (Contract # HHSN-271-2013-00017-C) directed by B.L.
# Roth, University of North Carolina at Chapel Hill and Project Officer J. Driscoll at NIMH,
# Bethesda, Maryland, USA. Further details available at https://pdspdb.unc.edu/pdspWeb/.
# MOR stands for “Opiate µ receptor”. […]
# […] Source data are provided as a
# T2 sequence (P35372 whole entry): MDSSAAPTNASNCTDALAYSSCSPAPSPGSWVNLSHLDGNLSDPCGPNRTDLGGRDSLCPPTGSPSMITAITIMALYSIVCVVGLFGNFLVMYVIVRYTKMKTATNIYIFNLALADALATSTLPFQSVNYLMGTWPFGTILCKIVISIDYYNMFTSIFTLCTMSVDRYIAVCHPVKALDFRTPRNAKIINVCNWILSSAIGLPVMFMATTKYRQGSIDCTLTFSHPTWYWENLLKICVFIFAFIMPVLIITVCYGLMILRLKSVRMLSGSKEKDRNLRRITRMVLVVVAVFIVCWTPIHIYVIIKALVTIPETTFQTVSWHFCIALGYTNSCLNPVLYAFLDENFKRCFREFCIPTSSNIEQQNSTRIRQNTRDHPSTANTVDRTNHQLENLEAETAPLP
smiles,measurement,setting,value
COc1cc(OC)cc(-c2noc(N3CCN(C)C4(CCN(c5ccnc(C)c5)CC4)C3)n2)c1 [MRK-740],Functional activity (in words),[1]; agonist and antagonist mode,no functional activity
same,"M2 Tango Agonist, raw signal",[1]; log[MRK-740] -4.52,1230.87 and 608.6 and 2018.05 and 925.229
same,"M2 Tango Antagonist, raw signal",[1]; log[MRK-740] -4.52,1892.98 and 2737.32 and 2580.15 and 2057.03
same,"M2 Tango Agonist, raw signal",[1]; log[MRK-740] -5,1170.4 and 556.928 and 885.65 and 2239.04
same,"M2 Tango Antagonist, raw signal",[1]; log[MRK-740] -5,2819.92 and 2620.3 and 3056.24 and 3398.11
same,"M2 Tango Agonist, raw signal",[1]; log[MRK-740] -5.52,908.738 and 686.657 and 1321.02 and 1693.72
same,"M2 Tango Antagonist, raw signal",[1]; log[MRK-740] -5.52,11268.6 and 11778 and 17270.9 and 14621.3
same,"M2 Tango Agonist, raw signal",[1]; log[MRK-740] -6,612.997 and 2403.96 and 980.199 and 1368.29
same,"M2 Tango Antagonist, raw signal",[1]; log[MRK-740] -6,16800.4 and 13053.9 and 12658.1 and 16097
same,"M2 Tango Agonist, raw signal",[1]; log[MRK-740] -6.52,1008.78 and 553.629 and 1327.61 and 250.195
same,"M2 Tango Antagonist, raw signal",[1]; log[MRK-740] -6.52,19522.3 and 17447.6 and 21435.3 and 11694.3
same,"M2 Tango Agonist, raw signal",[1]; log[MRK-740] -7,841.674 and 505.256 and 883.451 and 1474.94
same,"M2 Tango Antagonist, raw signal",[1]; log[MRK-740] -7,19642.8 and 20162.6 and 13226 and 9835.52
same,"M2 Tango Agonist, raw signal",[1]; log[MRK-740] -7.52,1908.11 and 681.16 and 1388.08 and 3242.84
same,"M2 Tango Antagonist, raw signal",[1]; log[MRK-740] -7.52,21785.3 and 16504.3 and 11050.6 and 14699.4
same,"M2 Tango Agonist, raw signal",[1]; log[MRK-740] -8,903.241 and 865.861 and 1293.53 and 833.978
same,"M2 Tango Antagonist, raw signal",[1]; log[MRK-740] -8,17075.8 and 13974.2 and 18134.9 and 13350
same,"M2 Tango Agonist, raw signal",[1]; log[MRK-740] -8.52,3423.68 and 634.694 and 1797.23 and 346.523
same,"M2 Tango Antagonist, raw signal",[1]; log[MRK-740] -8.52,19019.9 and 15122.7 and 15169.2 and 14917.8
same,"M2 Tango Agonist, raw signal",[1]; log[MRK-740] -9,2386.23 and 137.073 and 3399.79 and 858.202
same,"M2 Tango Antagonist, raw signal",[1]; log[MRK-740] -9,17183.9 and 21120.4 and 14888.7 and 14358.1
same,"M2 Tango Agonist, raw signal",[1]; log[MRK-740] -9.52,623.448 and 315.598 and 869.448 and 1092.96
same,"M2 Tango Antagonist, raw signal",[1]; log[MRK-740] -9.52,22350.3 and 15858.2 and 16819.1 and 15951.3
same,"M2 Tango Agonist, raw signal",[1]; log[MRK-740] -10,2109.3 and 935.517 and 704.979 and 1937.8
same,"M2 Tango Antagonist, raw signal",[1]; log[MRK-740] -10,21021.6 and 16763.8 and 20216.2 and 13987.5
same,"M2 Tango Agonist, raw signal",[1]; log[MRK-740] -10.52,1187.14 and 1805.66 and 1171.68 and 1424.71
same,"M2 Tango Antagonist, raw signal",[1]; log[MRK-740] -10.52,18293 and 14853.8 and 17839.5 and 22558.2
same,"M2 Tango Agonist, raw signal",[1]; log[MRK-740] -11,648.751 and 5178.11 and 914.431 and 991.746
same,"M2 Tango Antagonist, raw signal",[1]; log[MRK-740] -11,17836.6 and 15099.5 and 17153.4 and 15587.9
same,"M2 Tango Agonist, raw signal",[1]; log[MRK-740] -11.52,2954.16 and 1388.16 and 1004.4 and 790.728
same,"M2 Tango Antagonist, raw signal",[1]; log[MRK-740] -11.52,13959.9 and 19316.4 and 14923.6 and 25119.7
same,"M2 Tango Agonist, raw signal",[1]; log[MRK-740] -12,606.579 and 917.242 and 726.065 and 3353.4
same,"M2 Tango Antagonist, raw signal",[1]; log[MRK-740] -12,15989 and 24141.3 and 15762.3 and 20389.2
same,Functional activity (in words),[2]; agonist and antagonist mode,some potential agonistic activity
same,"MOR Gi Agonist, raw signal",[2]; log[MRK-740] -4.52,523.998 and 475.715 and 479.854
same,"MOR Tango Antagonist, raw signal",[2]; log[MRK-740] -4.52,6964.63 and 7700.23 and 6817.3 and 8343.47
same,"MOR Gi Agonist, raw signal",[2]; log[MRK-740] -5,470.197 and 394.324 and 410.878
same,"MOR Tango Antagonist, raw signal",[2]; log[MRK-740] -5,5111.95 and 4601.78 and 6359.89 and 4362.1
same,"MOR Gi Agonist, raw signal",[2]; log[MRK-740] -5.52,427.432 and 384.668 and 477.095
